Results from US20150031102A1, “METHODS AND COMPOSITIONS FOR ENHANCED PRODUCTION OF BUTANOL BY CLOSTRIDIA” (Butrolix LLC, priority 2012, published 2015).

Tested on: C. acetobutylicum
Assay: Continuous culture, 2.5 L, dilution rate 0.01 per hour, 20 days (butanol, residual glucose, optical density, pH, yield, productivity)
Assay type: cell-based, Clostridium acetobutylicum
Details: for Productivity / Yield / Butanol: 50 nM peptide, Table 54; for Butanol: average ± SD of triplicate samples
Protocol: Lastly, 2.5 L continuous culture studies were conducted using the optimum peptide treatment level that was determined by the sequential batch transfer experiments. An untreated and a peptide-treated culture were grown in parallel, identical vessels with identical dilution rates for 20 days. The continuous cultures were initiated by inoculating 2.25 L of sterile medium in each culture vessel using 250 mL of peptide-treated and untreated batch cultures that had been grown for 24 hours. The batch cultures used as inoculum were the third of sequential batch transfer cultures, which made inoculation of the continuous cultures the fourth sequential transfer. After inoculation, the continuous cultures were grown for 24 hours before beginning to feed fresh medium at a rate of 0.01 volumes per hour. Triplicate samples were taken from each continuous culture every 24 hours. Optical density of the replicates was measured and culture supernatants were recovered following centrifugation and analyzed later for butanol and residual glucose concentrations. The analyses were used to calculate yield and productivity of the cultures.
Clostridium acetobutylicum strain ATCC 824 was used in all experiments and the growth medium used for sequential batch transfer, time course, and continuous culture experiments contained yeast extract, casamino acids, L-cysteine, L-asparagine, phosphate buffer, trace minerals, and 6% glucose. What are believed to be quorum-sensing peptides that were used in the experiments were chemically synthesized peptides SEQ ID NO: 143 (amino acid sequence: SYPGWSW) and SEQ ID NO: 144 (amino acid sequence: ILILISG). Routine growth of the bacteria as well as the sequential batch and time course experiments were conducted in a Form a Scientific Model 1029 anaerobic gas chamber at 32° C. Continuous cultures were performed at 32° C. using duplicate New Brunswick Scientific BioFlo 3000 apparati with a dilution rate of 0.01 volume per hour, 75 rpm agitation, and nitrogen gas sparging. Optical density of culture samples was measured at 600 nm in a Beckman DU 600 series spectrophotometer and glucose was analyzed using a YSI Model 2700 Select Biochemistry Analyzer with internal glucose calibration. Butanol concentrations were determined by measuring experimental and standard samples using a Varian Saturn 3 Gas Chromatograph/Mass Spectrometer and calculating butanol concentrations using standard curves.
Data from continuous cultures using a 6% glucose medium in vessels with a working volume of 2.5 L run at a dilution rate of 0.01 per hour. Two vessels were run in parallel, one of which was treated with 50 nM of peptide SEQ ID NO: 143 and the other was untreated. The vessels were sparged continuously with nitrogen gas to maintain anaerobic conditions and were agitated at 75 rpm. On Day 0, the vessels were inoculated with a 1/10 volume (250 mL) of overnight cultures that were either treated with peptide or untreated, and that were the third transfer of the cultures, which made inoculation of the continuous cultures the fourth transfer. Triplicate samples were collected aseptically from each vessel immediately after inoculation and every 24 hours thereafter. The cultures were allowed to grow for 24 hours prior to beginning to feed fresh medium, and were maintained for 20 days each, without pH control. The optical density of each sample was measured immediately at 600 nm, the samples were centrifuged to remove cells, and the cell-free supernatants were frozen for later analysis. A representative experiment is shown in FIG. 19 and Tables 34 and 35.
Using the optimum peptide treatment level that was determined by the sequential batch transfer experiments, 2.5 L continuous culture studies were conducted. An untreated and a peptide-treated culture were grown in parallel, identical vessels using the same dilution rates for 20 days for each of the peptides BP110517 and BP1106213. […]

[1] = 24 hour period preceding day 10
[2] = 24 hour period preceding day 11
[3] = 24 hour period preceding day 12
[4] = 24 hour period preceding day 13
[5] = 24 hour period preceding day 14
[6] = 24 hour period preceding day 15
[7] = 24 hour period preceding day 16
[8] = 24 hour period preceding day 17
[9] = 24 hour period preceding day 18
[10] = 24 hour period preceding day 19
[11] = 24 hour period preceding day 20

Substance: ILILISG (Derived from Clostridium acetobutylicum SEQ ID NO: 110) [peptide SEQ ID NO: 144]
- Butanol content compared with the untreated culture (50 nM BP1106213, starting at day 2 and throughout the rest of the study): untreated culture remained significantly higher
- pH (50 nM BP1106213 and its untreated control, after the first 4 days, for the duration of both cultures): ~4.2
- Optical density (600 nm) (50 nM BP1106213 and its untreated control, almost the complete duration of the cultures): above 2.0
- Glucose consumption (50 nM BP1106213 and untreated, day three through the end of the study): entirely consumed
- Productivity (24 hour period preceding day 1): 0.53 g Butanol/L-h
- Yield (24 hour period preceding day 1): 0.19 g Butanol/g Glucose
- Productivity (24 hour period preceding day 2): −0.17 g Butanol/L-h
- Yield (24 hour period preceding day 2): −0.28 g Butanol/g Glucose
- Productivity (24 hour period preceding day 3): 0.07 g Butanol/L-h
- Yield (24 hour period preceding day 3): 0.11 g Butanol/g Glucose
- Productivity (24 hour period preceding day 4): 0.29 g Butanol/L-h
- Yield (24 hour period preceding day 4): 0.46 g Butanol/g Glucose
- Productivity (24 hour period preceding day 5): 0.24 g Butanol/L-h
- Yield (24 hour period preceding day 5): 0.39 g Butanol/g Glucose
- Productivity (24 hour period preceding day 6): 0.07 g Butanol/L-h
- Yield (24 hour period preceding day 6): 0.11 g Butanol/g Glucose
- Productivity (24 hour period preceding day 7): 0.14 g Butanol/L-h
- Yield (24 hour period preceding day 7): 0.23 g Butanol/g Glucose
- Productivity (24 hour period preceding day 8): 0.06 g Butanol/L-h
- Yield (24 hour period preceding day 8): 0.10 g Butanol/g Glucose
- Productivity (24 hour period preceding day 9): 0.07 g Butanol/L-h
- Yield (24 hour period preceding day 9): 0.11 g Butanol/g Glucose
- Productivity [1]: 0.00 g Butanol/L-h
- Yield [1]: 0.01 g Butanol/g Glucose
- Productivity [2]: 0.20 g Butanol/L-h
- Yield [2]: 0.33 g Butanol/g Glucose
- Productivity [3]: 0.02 g Butanol/L-h
- Yield [3]: 0.04 g Butanol/g Glucose
- Productivity [4]: −0.11 g Butanol/L-h
- Yield [4]: −0.18 g Butanol/g Glucose
- Productivity [5]: 0.00 g Butanol/L-h
- Yield [5]: 0.00 g Butanol/g Glucose
- Productivity [6]: 0.03 g Butanol/L-h
- Yield [6]: 0.05 g Butanol/g Glucose
- Productivity [7]: 0.11 g Butanol/L-h
- Yield [7]: 0.17 g Butanol/g Glucose
- Productivity [8]: −0.01 g Butanol/L-h
- Yield [8]: −0.02 g Butanol/g Glucose
- Productivity [9]: 0.01 g Butanol/L-h
- Yield [9]: 0.01 g Butanol/g Glucose
- Productivity [10]: 0.06 g Butanol/L-h
- Yield [10]: 0.09 g Butanol/g Glucose
- Productivity [11]: 0.01 g Butanol/L-h
- Yield [11]: 0.01 g Butanol/g Glucose
- Butanol (day 0): 0.6 ± 0.0 g/L
- Butanol (day 1): 7.0 ± 0.5 g/L
- Butanol (day 2): 8.2 ± 0.9 g/L
- Butanol (day 3): 6.9 ± 0.6 g/L
- Butanol (day 4): 5.0 ± 0.2 g/L
- Butanol (day 5): 4.6 ± 0.3 g/L
- Butanol (day 6): 5.2 ± 0.2 g/L
- Butanol (day 7): 4.9 ± 0.2 g/L
- Butanol (day 8): 5.6 ± 0.0 g/L
- Butanol (day 9): 5.1 ± 0.1 g/L
- Butanol (day 10): 5.1 ± 0.0 g/L
- Butanol (day 11): 5.2 ± 0.2 g/L
- Butanol (day 12): 5.1 ± 0.1 g/L
- Butanol (day 13): 5.0 ± 0.1 g/L
- Butanol (day 14): 5.4 ± 0.1 g/L
- Butanol (day 15): 5.5 ± 0.1 g/L
- Butanol (day 16): 5.5 ± 0.1 g/L
- Butanol (day 17): 5.3 ± 0.1 g/L
- Butanol (day 18): 5.1 ± 0.2 g/L
- Butanol (day 19): 4.3 ± 0.2 g/L
- Butanol (day 20): 2.9 ± 0.1 g/L
- Effect on differentiation and butanol production (continuous cultures): strong inhibitor of differentiation and butanol production
